Data: patent US9074014B2 (Ipsen Pharma S.A.S., priority 2008, dated 2015)
Where a SMILES comes first, the peptide text is derived from it. Where no end group is shown, it is not given here. [ ]: non-standard residue; d: D form. Ac6c = NC1(C(=O)O)CCCCC1; Nle = CCCC[C@H](N)C(=O)O; Ac5c = NC1(C(=O)O)CCCC1; Aib = CC(C)(N)C(=O)O

Columns and labels:
[1] = Human plasma half-life assay; format: in vitro ADME; conditions: human plasma, 37° C., LC-MS; read-out: Human Plasma T½ (converted)
[2] = In vivo insulin secretion in normal rats; design: species or system Sprague Dawley rats; conditions: fasted male rats, iv compound with glucose 1 g/kg, samples to 20 minutes
Protocol: D. Determination of In Vivo Insulin Secretion in Normal Rats
Male Sprague Dawley rats with a body weight of approximately 275-300 g were used as experimental subjects. The day prior to the treatment, right atrial cannulae were implanted via the jugular vein under chlorohydrate. Each cannula was filled with 100 u/ml heparin saline and tied. The rats were fasted for approximately 18 hours prior to dosing with the compound or the vehicle (saline/0.25% BSA). The day of the experiment, aliquots of compound were thawed, brought to room temperature and vortexed thoroughly. A careful check was made for any sign of compound coming out of solution. 10 minutes prior to compound/glucose injection, a 500 μl blood sample was withdrawn and replaced with an equal volume of heparinized saline (10 u/ml). At time 0, a 500 μl blood sample was withdrawn through the cannula. Next, either the vehicle or the appropriate dose of the compound was injected into the cannula and pushed in with the glucose (1 g/kg) or vehicle solution. Finally, 500 μl of volume of heparinized saline (10 u/ml) was used to push in the remaining glucose through the cannula. Additional 500 μl blood samples were withdrawn at 2.5, 5, 10, and 20-minute post-glucose dosing; each immediately followed by a bolus, iv injection of 500 μl heparinized saline (10 u/ml) through the cannula. The plasma was collected from the blood samples by centrifugation, and stored at −20° C. until assay for insulin content. Numerical values of the total insulin secretion, which show the in vivo effects of the compounds of Examples 105, 106, 118, and 119, are summarized in Table 3.

[3] = Rat plasma half-life assay; format: in vitro ADME; conditions: rat plasma, 37° C., LC-MS; read-out: Rat Plasma T½ (converted)
[4] = target: T1, human recombinant GIP receptor (Homo sapiens, UniProt P48546); assay: In vitro hGIP receptor binding assay ([125I]GIP displacement, CHO-K1 membranes)
T1 construct: expressed in transfected cells; host or cells: CHO-K1 clonal cells (membranes)
T1 sequence (P48546 22-466): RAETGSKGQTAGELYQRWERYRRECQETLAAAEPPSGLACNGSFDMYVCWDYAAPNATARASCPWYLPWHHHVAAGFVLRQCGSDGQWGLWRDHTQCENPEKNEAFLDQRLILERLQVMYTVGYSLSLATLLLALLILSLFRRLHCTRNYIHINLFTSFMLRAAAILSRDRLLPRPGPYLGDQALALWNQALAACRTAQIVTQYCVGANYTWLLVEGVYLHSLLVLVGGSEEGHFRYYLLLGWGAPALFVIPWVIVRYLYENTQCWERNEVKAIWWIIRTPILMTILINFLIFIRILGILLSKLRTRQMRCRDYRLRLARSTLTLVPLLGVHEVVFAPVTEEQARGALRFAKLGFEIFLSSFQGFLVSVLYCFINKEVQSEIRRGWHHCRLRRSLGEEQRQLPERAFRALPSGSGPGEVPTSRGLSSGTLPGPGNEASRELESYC
Description: A. In Vitro hGIP Receptor Binding Assay

With `CCCC[C@H](NC(=O)[C@H](C)NC(=O)[C@@H](NC(=O)C1(NC(=O)[C@H](Cc2ccc(O)cc2)NC(=O)[C@H](CC(=O)O)NC(=O)[C@H](CO)NC(=O)[C@@H](NC(=O)[C@H](Cc2ccccc2)NC(=O)[C@@H](NC(=O)CNC(=O)[C@H](CCC(=O)O)NC(=O)[C@@H](C)NC(=O)[C@@H](N)Cc2ccc(O)cc2)[C@@H](C)O)[C@@H](C)CC)CCCC1)[C@@H](C)CC)C(=O)N[C@@H](CC(=O)O)C(=O)N[C@@H](CCCCN)C(=O)N[C@H](C(=O)N[C@@H](Cc1c[nH]cn1)C(=O)N[C@@H](CCC(N)=O)C(=O)N[C@@H](CCC(N)=O)C(=O)N[C@@H](CC(=O)O)C(=O)N[C@@H](Cc1ccccc1)C(=O)N[C@H](C(=O)N[C@@H](CC(N)=O)C(=O)N[C@@H](Cc1c[nH]c2ccccc12)C(=O)N[C@@H](CC(C)C)C(=O)N[C@@H](CC(C)C)C(=O)N[C@@H](C)C(=O)N[C@@H](CCC(N)=O)C(=O)N[C@@H](CCCCN)C(=O)NCC(=O)N[C@@H](CCCCN)C(=O)N[C@@H](CCCCN)C(=O)N[C@@H](CC(N)=O)C(=O)N[C@@H](CC(=O)O)C(=O)N[C@@H](Cc1c[nH]c2ccccc12)C(=O)N[C@@H](CCCCN)C(=O)N[C@@H](Cc1c[nH]cn1)C(=O)N[C@@H](CC(N)=O)C(=O)N[C@H](C(=O)N[C@H](C(=O)N[C@@H](CCC(N)=O)C(=O)N[C@@H](Cc1c[nH]cn1)C(=O)O)[C@@H](C)O)[C@@H](C)CC)C(C)C)[C@@H](C)CC` [Example 119, (D-Ala^2, A5c^11, Nle^14, His^43)hGIP(1-43)-OH] the half-life at 0.1 mg/ml [1] was 35.7 h, the “AUC (total insulin secretion)” value [2] was 167.48 and the half-life at 0.1 mg/ml [3] was 15.4 h.

“Y[Aib]EGTF[Ac6c]SDYSI[Aib][Nle]DKIHQQDFVNWLLAQKGKKNDWKHNITQ-OH [Example 21, (Aib^2, 13, A6c^7, Nle^14)hGIP(1-42)-OH]” showed a Ki [4] of 0.3 nM, a half-life at 0.1 mg/ml [1] of over 48 h and a half-life at 0.1 mg/ml [3] of 12.3 h.

With `CC[C@H](C)[C@H](NC(=O)[C@H](CCCCN)NC(=O)[C@H](CC(=O)O)NC(=O)[C@H](CCSC)NC(=O)[C@H](C)NC(=O)[C@@H](NC(=O)C1(NC(=O)[C@H](Cc2ccc(O)cc2)NC(=O)[C@H](CC(=O)O)NC(=O)[C@H](CO)NC(=O)[C@@H](NC(=O)[C@H](Cc2ccccc2)NC(=O)[C@@H](NC(=O)CNC(=O)[C@H](CCC(=O)O)NC(=O)C(C)(C)NC(=O)[C@@H](N)Cc2ccc(O)cc2)[C@@H](C)O)[C@@H](C)CC)CCCC1)[C@@H](C)CC)C(=O)N[C@@H](Cc1c[nH]cn1)C(=O)N[C@@H](CCC(N)=O)C(=O)N[C@@H](CCC(N)=O)C(=O)N[C@@H](CC(=O)O)C(=O)N[C@@H](Cc1ccccc1)C(=O)N[C@H](C(=O)N[C@@H](CC(N)=O)C(=O)N[C@@H](Cc1c[nH]c2ccccc12)C(=O)N[C@@H](CC(C)C)C(=O)N[C@@H](CC(C)C)C(=O)N[C@@H](C)C(=O)N[C@@H](CCC(N)=O)C(=O)N[C@@H](CCCCN)C(N)=O)C(C)C` [Example 46, (Aib^2, A5c^11)hGIP(1-30)-NH2] (H-Y[Aib]EGTFISDY[Ac5c]IAMDKIHQQDFVNWLLAQK-NH2; N-terminus assumed) the Ki [4] was 0.09 nM, the half-life at 0.1 mg/ml [1] was 12.2 h and the half-life at 0.1 mg/ml [3] was over 54 h.

With “Y[Aib]EGTFISDYSIA[Ac6c]DKIHQQDFVNWLLAQKGKKNDWKHNITQ-OH [Example 42, (Aib^2, A6c^14)hGIP(1-42)-OH]” the Ki [4] was 0.07 nM, the half-life at 0.1 mg/ml [1] was 10.6 h and the half-life at 0.1 mg/ml [3] was 6.2 h.

`CC[C@H](C)[C@H](NC(=O)[C@H](CO)NC(=O)[C@H](Cc1ccc(O)cc1)NC(=O)[C@H](CC(=O)O)NC(=O)C(C)(C)NC(=O)[C@@H](NC(=O)[C@H](Cc1ccccc1)NC(=O)[C@@H](NC(=O)CNC(=O)[C@H](CCC(=O)O)NC(=O)C(C)(C)NC(=O)[C@@H](N)Cc1ccc(O)cc1)[C@@H](C)O)[C@@H](C)CC)C(=O)N[C@@H](C)C(=O)N[C@@H](CCSC)C(=O)N[C@@H](CC(=O)O)C(=O)N[C@@H](CCCCN)C(=O)N[C@H](C(=O)N[C@@H](Cc1c[nH]cn1)C(=O)N[C@@H](CCC(N)=O)C(=O)N[C@@H](CCC(N)=O)C(=O)N[C@@H](CC(=O)O)C(=O)N[C@@H](Cc1ccccc1)C(=O)N[C@H](C(=O)N[C@@H](CC(N)=O)C(=O)N[C@@H](Cc1c[nH]c2ccccc12)C(=O)N[C@@H](CC(C)C)C(=O)N[C@@H](CC(C)C)C(=O)N[C@@H](C)C(=O)N[C@@H](CCC(N)=O)C(=O)N[C@@H](CCCCN)C(N)=O)C(C)C)[C@@H](C)CC` [Example 17, (Aib^2, 8)hGIP(1-30)-NH2] (H-Y[Aib]EGTFI[Aib]DYSIAMDKIHQQDFVNWLLAQK-NH2; N-terminus assumed) showed a Ki [4] of 15.9 nM, a half-life at 0.1 mg/ml [1] of 17.4 h and a half-life at 0.1 mg/ml [3] of 55 h.

With “Y[dA]EGTFISDY[Ac5c]IAMDKIHQQDFVNWLLAQKGKKNDWKHNI[Ac5c]Q-OH [Example 106, (D-Ala^2, A5c^11, 41)hGIP(1-42)-OH]” the half-life at 0.1 mg/ml [1] was over 55 h, the “AUC (total insulin secretion)” value [2] was 161.73 and the half-life at 0.1 mg/ml [3] was 9.2 h.

Work on `CC[C@H](C)[C@H](NC(=O)[C@H](CCCCN)NC(=O)[C@H](CC(=O)O)NC(=O)[C@H](CCSC)NC(=O)C(C)(C)NC(=O)[C@@H](NC(=O)[C@H](CO)NC(=O)[C@H](Cc1ccc(O)cc1)NC(=O)[C@H](CC(=O)O)NC(=O)[C@H](CO)NC(=O)[C@@H](NC(=O)[C@H](Cc1ccccc1)NC(=O)[C@@H](NC(=O)CNC(=O)[C@H](CCC(=O)O)NC(=O)C(C)(C)NC(=O)[C@@H](N)Cc1ccc(O)cc1)[C@@H](C)O)[C@@H](C)CC)[C@@H](C)CC)C(=O)N[C@@H](Cc1c[nH]cn1)C(=O)N[C@@H](CCC(N)=O)C(=O)N[C@@H](CCC(N)=O)C(=O)N[C@@H](CC(=O)O)C(=O)N[C@@H](Cc1ccccc1)C(=O)N[C@H](C(=O)N[C@@H](CC(N)=O)C(=O)N[C@@H](Cc1c[nH]c2ccccc12)C(=O)N[C@@H](CC(C)C)C(=O)N[C@@H](CC(C)C)C(=O)N[C@@H](C)C(=O)N[C@@H](CCC(N)=O)C(=O)N[C@@H](CCCCN)C(=O)NCC(=O)N[C@@H](CCCCN)C(=O)N[C@@H](CCCCN)C(=O)N[C@@H](CC(N)=O)C(=O)N[C@@H](CC(=O)O)C(=O)N[C@@H](Cc1c[nH]c2ccccc12)C(=O)N[C@@H](CCCCN)C(=O)N[C@@H](Cc1c[nH]cn1)C(=O)N[C@@H](CC(N)=O)C(=O)N[C@H](C(=O)N[C@H](C(=O)N[C@@H](CCC(N)=O)C(=O)O)[C@@H](C)O)[C@@H](C)CC)C(C)C` [Example 60, (Aib^2, 13)hGIP(1-42)-OH] yielded a Ki [4] of 0.05 nM, a half-life at 0.1 mg/ml [1] of 26 h and a half-life at 0.1 mg/ml [3] of 10.5 h.

In the case of “Y[Aib]EGTF[Ac6c]SDYSIAMDKIHQQDFVNWLLAQKGKKNDWKHNITQ-OH [Example 43, (Aib^2, A6c^7)hGIP(1-42)-OH]”, the Ki [4] is reported as 0.3 nM, the half-life at 0.1 mg/ml [1] is reported as 8.8 h and the half-life at 0.1 mg/ml [3] is reported as 7.7 h.
